Source: PubChem BioAssay AID2060898 (Molecular Pharmacology Branch, DTP, NCI, 2025)

Test system: 616215-338-R-J1-PDC complex spheroid viability
Test: Anticancer human tumor 616215-338-R-J1-PDC patient-derived colon adenocarcinoma cell line growth inhibition [RAS]
Details: for IC50: curve of first compound; for viability, T/C: stronger effect = lower value
Excerpt: RAS pathway inhibitors in Combinations in Complex Spheroids
A high-throughput screen of multi-cell type tumor spheroids was designed to identify active combinations of RAS pathway inhibitors and targeted small molecules. Complex spheroids include a stromal component modeled by human endothelial cells (HUVEC) and fibroblasts modeled by human mesenchymal stem cells (MSCs). The concentration ranges selected for each drug and investigational agent were based upon clinically achievable concentrations if the clinical Cmax of the agent was known.
Compounds. The drugs and investigational agents: abemaciclib (NSC768073), cobimetinib (NSC768068), divarasib (GDC6063, NSC841802), docetaxel (NSC628503), GDC-1971 (RLY-1971, NSC841576), gemcitabine (NSC613327), inavolisib (NSC800729), ipatasertib (NSC767898), KB-0742 (NSC834161), MRTX-1133 (NSC836407), osimertinib (NSC779217), RMC-4630 (NSC839698), RMC-6236 (NSC851965), RMC-6291 (NSC852671), Ro-3306 (NSC812927), sapanisertib (NSC764658), SN-38 (NSC673596), staurosporine (NSC755774), SY5609 (NSC837396), and tovorafenib (DAY101, NSC766906), were obtained from the National Cancer Institute (NCI) Developmental Therapeutics Program Chemical Repository. The FDA-approved anticancer drug set is available from the NCI Developmental Therapeutics Program. […] The stock solutions were prepared in dimethyl sulfoxide (DMSO, Sigma-Aldrich, St. Louis, MO, cat. D2650) at 800-fold the tested concentration and stored at -70 degrees C prior to their use. All drugs and investigational agents were tested over a range starting from a high concentration at or near the clinical Cmax and decreasing in half-log increments. If the clinical Cmax for an agent had not been determined, the highest concentration tested was 10 microM.
Cell Culture. All cells were maintained in an incubator at 37 degrees C and 5% CO2 with 95% humidity. The PDC lines were cultured according to standard operating procedures established by the NCI PDMR. All PDCs were thawed and cultured in Matrigel-coated flasks prepared with a working solution of 1X Ham's F-12 nutrient mix, without supplementation (Invitrogen, Waltham, MA, cat. 11765054), 100 U/mL penicillin-streptomycin (Invitrogen, cat. 15140122), and 2.5% Matrigel (Corning Inc., Corning, NY, cat. 354248) for the first three passages. The 362531-283-R-J2-PDC and 782815-120-R-J1-PDC lines were cultured in 6C/Colon 1B media, which includes advanced DMEM/F-12 (Thermo Fisher Scientific, cat. 12634028), 10 mM HEPES (Thermo Fisher Scientific, cat. 15630080), 1X GlutaMAX supplement (Thermo Fisher Scientific, cat. 35050061), 0.1 mg/mL primocin (InvivoGen, San Diego, CA, cat. ant-pm-2), 10% defined fetal bovine serum, heat inactivated (HyClone Laboratories Inc., Logan, UT, cat. SH30070.03HI), 50% L-WRN conditioned media (ATCC, cat. CRL-3276), 1.25 mM N-Acetyl-L-cysteine (Sigma-Aldrich, cat. A9165), 10 mM nicotinamide (Sigma-Aldrich, cat. N0636), 1X B-27 supplement (Thermo Fisher Scientific, cat. 17504044), 1X N-2 supplement (Thermo Fisher Scientific, cat. 17502048), 50 ng/mL human EGF (Thermo Fisher Scientific, cat. PHG0311), and 10 microM Y-27632 dihydrochloride (Tocris Bioscience, cat. 1254). The K12877-001-R-J1-PDC line was cultured in 6I media, which includes all 6C/Colon 1B media plus 10 ng/mL human FGF-10 (PeproTech, cat. 100-26), 1 ng/mL human FGF-2 (PeproTech, cat. 100-18B), 1 µM prostaglandin E2 (Tocris Bioscience, cat. 2296), […] hydrocortisone (Sigma-Aldrich, cat. H4001), and […] bovine insulin (Sigma-Aldrich, cat. I6634). The K86415-001-R-J1-PDC line was cultured in 6D media, which includes all 6C/Colon 1B media components minus the L-WRN conditioned media. The 485176-168-R4-J1-PDC was cultured in PANC media, which includes all 6C/Colon 1B media plus 100 ng/mL human FGF-10 (PeproTech, cat. 100-26), 500 nM SB-431542 (Selleckchem, cat. S1067), and 10 nM gastrin (Tocris Bioscience, cat. 3006). […]
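Note: spheroids exposed to agents for seven days before viability readout.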
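Throughout, for viability, T/C: 100% = DMSO vehicle control viability.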

CCC(CC)c1cc(NC2CCC(N)C2)n2nccc2n1 (configuration not stated) + C#Cc1c(F)ccc2cc(O)cc(-c3ncc4c(N5CC6CCC(C5)N6)nc(OCC56CCCN5CC(F)C6)nc4c3F)c12
IC50 (second compound 0.0316 µM): 1.78 µM | IC50 (second compound 0.1 µM): 1.78 µM | IC50 (second compound 0.316 µM): 1.84 µM | IC50 (second compound 1 µM): 1.85 µM | IC50 (second compound 3.16 µM): 1.51 µM | IC50 (second compound 10 µM): 1.24 µM | viability, T/C (second compound 0.0316 µM, first compound 0.0316 µM): 102% | viability, T/C (second compound 0.0316 µM, first compound 0.1 µM): 98.3% | viability, T/C (second compound 0.0316 µM, first compound 0.316 µM): 109% | viability, T/C (second compound 0.0316 µM, first compound 1 µM): 99.3% | viability, T/C (second compound 0.0316 µM, first compound 3.16 µM): 0.29% | viability, T/C (second compound 0.0316 µM, first compound 10 µM): 1.51% | viability, T/C (second compound 0.1 µM, first compound 0.0316 µM): 104% | viability, T/C (second compound 0.1 µM, first compound 0.1 µM): 105% | viability, T/C (second compound 0.1 µM, first compound 0.316 µM): 96.3% | viability, T/C (second compound 0.1 µM, first compound 1 µM): 99.9% | viability, T/C (second compound 0.1 µM, first compound 3.16 µM): 0.27% | viability, T/C (second compound 0.1 µM, first compound 10 µM): 0.21% | viability, T/C (second compound 0.316 µM, first compound 0.0316 µM): 112% | viability, T/C (second compound 0.316 µM, first compound 0.1 µM): 111% | viability, T/C (second compound 0.316 µM, first compound 0.316 µM): 101% | viability, T/C (second compound 0.316 µM, first compound 1 µM): 106% | viability, T/C (second compound 0.316 µM, first compound 3.16 µM): 0.21% | viability, T/C (second compound 0.316 µM, first compound 10 µM): 1.88% | viability, T/C (second compound 1 µM, first compound 0.0316 µM): 105% | viability, T/C (second compound 1 µM, first compound 0.1 µM): 110% | viability, T/C (second compound 1 µM, first compound 0.316 µM): 113% | viability, T/C (second compound 1 µM, first compound 1 µM): 106% | viability, T/C (second compound 1 µM, first compound 3.16 µM): 1.09% | viability, T/C (second compound 1 µM, first compound 10 µM): 1.83% | viability, T/C (second compound 3.16 µM, first compound 0.0316 µM): 115% | viability, T/C (second compound 3.16 µM, first compound 0.1 µM): 111% | viability, T/C (second compound 3.16 µM, first compound 0.316 µM): 121% | viability, T/C (second compound 3.16 µM, first compound 1 µM): 77.7% | viability, T/C (second compound 3.16 µM, first compound 3.16 µM): 0.19% | viability, T/C (second compound 3.16 µM, first compound 10 µM): 1.03% | viability, T/C (second compound 10 µM, first compound 0.0316 µM): 83.3% | viability, T/C (second compound 10 µM, first compound 0.1 µM): 74.5% | viability, T/C (second compound 10 µM, first compound 0.316 µM): 108% | viability, T/C (second compound 10 µM, first compound 1 µM): 61.3% | viability, T/C (second compound 10 µM, first compound 3.16 µM): 3.3% | viability, T/C (second compound 10 µM, first compound 10 µM): 0.3%
